From patent publication US6841567B1, “Cyclic substituted fused pyrrolocarbazoles and isoindolones” (Cephalon, Inc., priority 1999, dated 2005) come the findings set out here.

Assay [1] concerns the target T1, baculovirus-expressed human trkA cytoplasmic domain (Homo sapiens, UniProt P04629).
T1 construct: baculovirus-expressed human trkA cytoplasmic domain; made in house; host or cells: baculovirus expression system
Put plainly: Inhibition of trkA tyrosine kinase activity (ELISA-based assay). Conditions: for IC50: 40 μM ATP; for trkA kinase activity % Inh. @ 300 nM (values in parentheses) / inhibition at 0.3 µM: 300 nM compound; for inhibition at 0.3 µM: read-out: trkA kinase activity % Inh. @ 300 nM (values in parentheses). The assay is classed as biochemical. As for the experimental part:
Selected cyclic substituted fused pyrrolocarbazole and isoindolone compounds were tested for their ability to inhibit the kinase activity of baculovirus-expressed human trkA cytoplasmic domain using an ELISA-based assay as previously described (Angeles et al., Anal. Biochem. 236: 49-55, 1996). Briefly, the 96-well microtiter plate was coated with substrate solution (recombinant human phospholipase C-γ1/glutathione S-transferase fusion protein (Rotin et al., EMBO J., 11: 559-567, 1992). Inhibition studies were performed in 100 μl assay mixtures containing 50 mM Hepes, pH 7.4, 40 μM ATP, 10 mM MnCl2, 0.1% BSA, 2% DMSO, and various concentrations of inhibitor. The reaction was initiated by addition of trkA kinase and allowed to proceed for 15 minutes at 37° C. An antibody to phosphotyrosine (UBI) was then added, followed by a secondary enzyme-conjugated antibody, alkaline phosphatase-labelled goat antII-mouse IgG (Bio-Rad). The activity of the bound enzyme was measured via an amplified detection system (Gibco-BRL). Inhibition data were analyzed using the sigimoidal dose-response (variable slope) equation in GraphPad Prism.
For orientation: An ELISA detects its analyte on a solid surface through an enzyme-linked reagent.

Assay [2] addresses T2, trkA (NIH3T3 cells transfected with trkA) (Homo sapiens, UniProt P04629).
T2 construct: expressed in transfected cells; host or cells: NIH3T3
Put plainly: Inhibition of NGF-stimulated trk phosphorylation in a whole cell preparation. The assay is classed as cell-based. More on the design: key to Cell Score @ 100 nM (percent decrease in trk protein band): 0=no decrease; 1=1-25%; 2=26-49%; 3=50-75%; 4=76-100%. As to conditions: NGF 10 ng/ml; for Cell Score @ 100 nM (percent decrease in trk protein band): 100 nM compound; for Cell Score @ 1 uM (percent decrease in trk protein band): 1 uM compound. As for the experimental part:
NIH3T3 cells transfected with trkA were grown in 100 mm dishes. Subconfluent cells were serum-starved by replacing media with serum-free 0.05% BSA-DMEM containing compound (100 nM and 1 μM) or DMSO (added to controls) for one hour at 37° C. NGF (Harlan/Bioproducts for Science) was then added to the cells at a concentration of 10 ng/ml for 5 minutes. Cells were lysed in buffer containing detergent and protease inhibitors. Clarified cell lysates were normalized to protein using BCA method and immunoprecipitated with antII-trk antibody. Polyclonal antII-trk antibody was prepared against a peptide corresponding to the 14 amino acids at the carboxy terminus of trk (Martin-Zanca et al., Mol. Cell. Biol. 9: 24-33, 1989). The immune complexes were collected on Protein A Sepharose beads (Sigma Chem. Co., St. Lois, Mo.), separated by SDS polyacrylamide gel electrophoresis (SDS-PAGE), and transferred to a polyvinylidene difluoride (PVDF) membrane. The membrane was immunoblotted with antII-phosphotyrosine antibody (UBI), followed by incubation with horseradish peroxidase coupled goat antII-mouse IgG (Bio-Rad Laboratories, Hercules, Calif.). Phosphorylated proteins were visualized using ECL (Arnersham Life Science, Inc., Arlington Heights, Ill.). The area of the trk protein band was measured and compared to NGF-stimulated control. The inhibition scoring system used, based on percent decrease in trk protein band, was as follows: 0=no decrease; 1=1-25%; 2=26-49%; 3=50-75%; 4=76-100%.

In assay [3] the target is protein kinase C (UBI; mixed isozymes of a, b, g). Description: Inhibition of protein kinase C activity (Millipore Multiscreen TCA in-plate assay). Conditions: for Protein kinase C activity, values in parentheses: concentration not given. The assay is classed as biochemical. As for the experimental part:
Protein kinase C activity was assessed using the Millipore Multiscreen TCA “in-plate” assay as described in Pitt, A. M. and Lee, C. (J. Biomol. Screening, 1: 47-51, 1996). Assays were performed in 96-well Multiscreen-DP plates (Millipore). Each […] assay mixture contained 20 mM Hepes, pH 7.4, 10 mM MgCl2, 2.5 mM EGTA, 2.5 mM CaCl2, […] phosphatidyl serine, […] diolein, […] histone H-1 (Fluka), […] [γ-^32P]ATP, 1.5 ng protein kinase C (UBI; mixed isozymes of a, b, g), 0.1% BSA, 2% DMSO, and test cyclic substituted fused pyrrolocarbazole compound. The reaction was allowed to proceed for 10 min at 37° C., then quenched by adding ice cold 50% trichloroacetic acid. The plates were allowed to equilibrate for 30 min at 4° C., then washed with ice cold 25% TCA. Scintillation cocktail was added to the plates, and the radioactivity was determined using Wallac MicroBeta 1450 PLUS scintillation counter. The IC50 values were calculated by fitting the data to the sigmoidal dose-response (variable slope) equation in GraphPad Prism.

The target of assay [4] is T3, VEGF receptor (human flk-1, KDR, VEGFR2) kinase domain (Homo sapiens, UniProt P35968).
T3 construct: VEGF receptor (human flk-1, KDR, VEGFR2) kinase domain; made in house; host or cells: baculovirus expression system
T3 sequence (P35968 834-1162 limits assumed): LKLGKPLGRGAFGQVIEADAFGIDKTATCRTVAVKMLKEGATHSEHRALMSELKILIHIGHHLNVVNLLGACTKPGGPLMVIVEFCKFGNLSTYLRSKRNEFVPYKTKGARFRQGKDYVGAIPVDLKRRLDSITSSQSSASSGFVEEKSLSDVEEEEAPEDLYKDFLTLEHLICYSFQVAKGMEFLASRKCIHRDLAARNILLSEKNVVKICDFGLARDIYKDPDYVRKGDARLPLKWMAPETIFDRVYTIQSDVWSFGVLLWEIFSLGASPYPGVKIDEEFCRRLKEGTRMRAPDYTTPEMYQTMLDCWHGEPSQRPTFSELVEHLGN
Put plainly: Inhibition of vascular endothelial growth factor receptor kinase activity (ELISA). The assay is classed as biochemical. Conditions: for inhibition at 0.3 µM: 300 nM compound, read-out: VEGF receptor kinase activity % Inh. @ 300 nM (values in parentheses); for IC50: 40 μM ATP. On the procedure: Cyclic substituted fused pyrrolocarbazole and isoindolone compounds were examined for their inhibitory effects on the kinase activity of baculovirus-expressed VEGF receptor (human flk-1, KDR, VEGFR2) kinase domain using the procedure described for the trkA kinase ELISA assay described above. The kinase reaction mixture, consisting of 50 mM Hepes, pH 7.4, 40 μM ATP, 10 mM MnCl2, 0.1% BSA, 2% DMSO, and various concentrations of inhibitor, was transferred to PLC-γ/GST-coated plates. VEGFR kinase was added and the reaction was allowed to proceed for 15 min. at 37 C. Detection of phosphorylated product was accomplished by addition of antII-phosphotyrosine antibody (UBI). A secondary enzymeconjugated antibody was delivered to capture the antibody-phosphorylated PLC-γ/GST complex. The activity of the bound enzyme was measured via an amplified detection system (Gibco-BRL). Inhibition data were analyzed using the sigmoidal dose-response (variable slope) equation in GraphPad Prism.

T2 sequence (P04629 33-796, species assumed): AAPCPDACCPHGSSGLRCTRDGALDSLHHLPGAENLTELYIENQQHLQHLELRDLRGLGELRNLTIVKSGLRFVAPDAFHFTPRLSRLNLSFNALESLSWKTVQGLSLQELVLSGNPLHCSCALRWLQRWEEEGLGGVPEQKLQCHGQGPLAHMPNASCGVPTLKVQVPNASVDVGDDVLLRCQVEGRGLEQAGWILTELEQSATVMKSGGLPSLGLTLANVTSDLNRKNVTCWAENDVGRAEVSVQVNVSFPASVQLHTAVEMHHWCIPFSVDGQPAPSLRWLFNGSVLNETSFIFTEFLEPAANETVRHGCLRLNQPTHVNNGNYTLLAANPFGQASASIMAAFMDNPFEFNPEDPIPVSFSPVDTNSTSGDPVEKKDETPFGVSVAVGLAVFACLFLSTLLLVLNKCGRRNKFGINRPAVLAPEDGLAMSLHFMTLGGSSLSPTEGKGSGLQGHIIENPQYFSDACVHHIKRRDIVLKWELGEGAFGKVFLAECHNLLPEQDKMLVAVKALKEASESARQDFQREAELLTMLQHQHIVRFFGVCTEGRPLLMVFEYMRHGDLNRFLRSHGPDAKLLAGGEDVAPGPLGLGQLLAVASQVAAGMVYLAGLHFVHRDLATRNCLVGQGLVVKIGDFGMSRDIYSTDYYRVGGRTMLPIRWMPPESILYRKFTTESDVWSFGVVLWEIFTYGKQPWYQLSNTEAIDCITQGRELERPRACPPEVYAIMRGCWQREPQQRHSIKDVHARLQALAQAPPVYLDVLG
T1 sequence (P04629 440-796 limits assumed): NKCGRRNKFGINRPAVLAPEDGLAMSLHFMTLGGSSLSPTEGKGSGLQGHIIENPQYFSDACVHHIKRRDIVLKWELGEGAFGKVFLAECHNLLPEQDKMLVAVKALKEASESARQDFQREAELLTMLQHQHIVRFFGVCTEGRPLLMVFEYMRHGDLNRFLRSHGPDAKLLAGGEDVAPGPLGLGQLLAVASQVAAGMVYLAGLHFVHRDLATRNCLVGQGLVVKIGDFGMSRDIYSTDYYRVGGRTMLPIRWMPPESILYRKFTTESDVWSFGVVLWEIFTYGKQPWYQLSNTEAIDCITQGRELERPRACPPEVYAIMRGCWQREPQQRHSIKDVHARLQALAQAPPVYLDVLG

A word on the IC50: it is the midpoint of a concentration-inhibition curve. As to `CC1(C)COC(=O)C1(O)C1c2ccccc2-c2c3c(c4c([nH]c5ccccc54)c21)CNC3=O` (centres unmarked) [II-47], the IC50 in assay [1] is 44 nM; in assay [3], 1530 nM. The “Cell Score @ 100 nM (percent decrease in trk protein band)” value in assay [2] is reported as 1 (1=1-25%). In assay [2], the “Cell Score @ 1 uM (percent decrease in trk protein band)” value was 3 (3=50-75%).

Turning to `O=C1NCc2c1c1c(c3[nH]c4ccccc4c23)C(C2(CO)CCCO2)c2ccccc2-1` (single isomer, unassigned) [II-35], the inhibition at 0.3 µM in assay [4] worked out at 55%. Besides, the IC50 is 78 nM in assay [1] and above 10000 nM in assay [3]. In addition, in assay [2], the “Cell Score @ 100 nM (percent decrease in trk protein band)” value is reported as 0. The “Cell Score @ 1 uM (percent decrease in trk protein band)” value in assay [2] is reported as 3 (3=50-75%).

For the compound `O=C1NCc2c1c1c(c3[nH]c4ccccc4c23)C(C2(O)CCN(Cc3ccccc3)CC2)c2ccccc2-1` (centres unmarked) [II-02], the IC50 turned out to be 64 nM in assay [1] and 7500 nM in assay [3].

For `O=C1NCc2c1c1c(c3c2c2ccccc2n3CC2CCCOC2)Cc2ccccc2-1` (racemic) [II-63], the “trkA kinase activity % Inh. @ 300 nM (values in parentheses)” value in assay [1] is recorded as “(28) %”. In addition, the “Protein kinase C activity, values in parentheses” value in assay [3] was “(28)”.

Consider `CN1CCC(O)(C2c3ccccc3-c3c4c(c5c([nH]c6ccccc65)c32)CNC4=O)CC1` (centres unmarked) [II-10], for which the IC50 turned out to be 182 nM in assay [1] and 1570 nM in assay [3].

Consider `O=C1NCc2c1c1c(c3c2c2ccccc2n3CC2CCCCO2)Cc2ccccc2-1` (racemic) [II-62], for which the “trkA kinase activity % Inh. @ 300 nM (values in parentheses)” value in assay [1] is reported as “(27) %”. Further, in assay [3], the “Protein kinase C activity, values in parentheses” value is “(27)”.

`O=C1NCc2c1c1c(c3[nH]c4ccccc4c23)C(C2(O)CCOCC2)c2ccccc2-1` (centres unmarked) [II-03]: the results for the IC50 in assay [1] and in assay [3] were 72 nM and 4070 nM, respectively.

`O=C1NCc2c1c1c(c3[nH]c4ccccc4c23)C(C2(CO)CCCO2)c2ccccc2-1` (single isomer, unassigned) [II-36]: the half-inhibitory concentration (IC50) in assay [4] is 846 nM; in assay [1], 20 nM; in assay [3], above 10000 nM. In addition, the “Cell Score @ 100 nM (percent decrease in trk protein band)” value in assay [2] is recorded as 1 (1=1-25%). Also, the “Cell Score @ 1 uM (percent decrease in trk protein band)” value in assay [2] is given as 4 (4=76-100%).

As to `COCCOCc1ccc2c(c1)c1c3c(c4c(c1n2CC1CO1)Cc1ccccc1-4)C(=O)NC3` (racemic) [II-61], the IC50 in assay [3] was determined as 1360 nM.

`CC1(C2c3ccccc3-c3c4c(c5c([nH]c6ccccc65)c32)CNC4=O)CCCO1` (racemic) [II-04]: the IC50 was 8 nM in assay [1] and above 10000 nM in assay [3]. Also, the “Cell Score @ 100 nM (percent decrease in trk protein band)” value in assay [2] is reported as 1 (1=1-25%). In addition, in assay [2], the “Cell Score @ 1 uM (percent decrease in trk protein band)” value is on record as 2 (2=26-49%).

As to `O=C1NCc2c1c1c(c3[nH]c4ccccc4c23)C(C2CCCO2)c2ccccc2-1` (centres unmarked) [II-07], half-maximal inhibition in assay [1] (IC50) required 19 nM. Besides, in assay [2], the “Cell Score @ 100 nM (percent decrease in trk protein band)” value was 1 (1=1-25%) and the “Cell Score @ 1 uM (percent decrease in trk protein band)” value is reported as 2 (2=26-49%). In assay [3], this compound gave a 50% inhibitory concentration (IC50) of 7120 nM.

Turning to `COc1ccc2c(c1)C(C1(CO)CCCO1)c1c-2c2c(c3c1[nH]c1ccccc13)CNC2=O` (centres unmarked) [II-53], the IC50 in assay [4] came out at 209 nM; in assay [1], 8 nM; in assay [3], 2200 nM. Moreover, the “Cell Score @ 100 nM (percent decrease in trk protein band)” value in assay [2] is 4 (4=76-100%). Further, the “Cell Score @ 1 uM (percent decrease in trk protein band)” value in assay [2] is 4 (4=76-100%).

With `O=C1NCc2c1c1c(c3[nH]c4ccccc4c23)C(C2(O)CCc3ccccc3C2)c2ccccc2-1` (centres unmarked) [II-15], the inhibition at 0.3 µM in assay [1] was found to be 26%. Further, the IC50 in assay [3] was above 10000 nM.

Regarding `CC1(C2c3ccccc3-c3c4c(c5c([nH]c6ccccc65)c32)CNC4=O)CC(O)(CO)CO1` (centres unmarked) [II-26], the inhibition at 0.3 µM in assay [4] worked out at 48%. The IC50 in assay [1] stood at 45 nM. Also, in assay [2], the “Cell Score @ 100 nM (percent decrease in trk protein band)” value is on record as 2 (2=26-49%) and the “Cell Score @ 1 uM (percent decrease in trk protein band)” value is 4 (4=76-100%). Moreover, the half-inhibitory concentration (IC50) in assay [3] came to 2070 nM.

As for `O=C1NCc2c1c1c(c3[nH]c4ccccc4c23)C(C2(O)CCCO2)c2ccccc2-1` (centres unmarked) [II-42], the half-inhibitory concentration (IC50) in assay [4] came to 1390 nM; in assay [1], 149 nM; in assay [3], 6230 nM.

For `O=C1NCc2c1c1c(c3[nH]c4ccccc4c23)C(C2CCC(O)O2)c2ccccc2-1` (single isomer, unassigned) [II-38], the IC50 in assay [4] is 5100 nM; in assay [1] it was 405 nM; in assay [3], above 10000 nM. Further, in assay [2], the “Cell Score @ 100 nM (percent decrease in trk protein band)” value was 2 (2=26-49%). Further, the “Cell Score @ 1 uM (percent decrease in trk protein band)” value in assay [2] was 2 (2=26-49%).

In assay [1], `O=C1NCc2c1c1c(c3[nH]c4ccccc4c23)C(C2(CO)CCCO2)c2ccccc2-1` (centres unmarked) [II-21] came in with an IC50 of 15 nM. For the same compound, in assay [2], the “Cell Score @ 100 nM (percent decrease in trk protein band)” value was 2 (2=26-49%) and the “Cell Score @ 1 uM (percent decrease in trk protein band)” value is reported as 4 (4=76-100%). The IC50 in assay [3] was above 10000 nM.

`O=C1NCc2c1c1c(c3[nH]c4ccccc4c23)C(C2(C(O)CO)CCCO2)c2ccccc2-1` (centres unmarked) [II-29] came in with an IC50 in assay [1] of 16 nM. For the same compound, in assay [2], the “Cell Score @ 100 nM (percent decrease in trk protein band)” value came out at 0 and the “Cell Score @ 1 uM (percent decrease in trk protein band)” value is on record as 4 (4=76-100%). The compound also yielded a half-maximal inhibitory concentration (IC50) in assay [3] of 2080 nM.

Consider `O=C1NCc2c1c1c(c3[nH]c4ccccc4c23)C(C2(O)CCSCC2)c2ccccc2-1` (centres unmarked) [II-14], for which, in assay [1], the inhibition at 0.3 µM is 32%. Also, the concentration for half-maximal inhibition (IC50) in assay [3] is above 10000 nM.

For `O=C1CCC(CO)(C2c3ccccc3-c3c4c(c5c([nH]c6ccccc65)c32)CNC4=O)O1` (centres unmarked) [II-33], the concentration for half-maximal inhibition (IC50) in assay [1] was 153 nM; in assay [3], 1040 nM.
